# Assay results reported in patent publication US20260224738A1, “MICELLE NANOPARTICLES COMPRISING BIOPOLYMER-HEMIN COMPLEX, AND USE THEREOF” (GWANGJU INSTITUTE OF SCIENCE AND TECHNOLOGY, priority 2023, published 2026).
# What was measured:
# [1] = system: AKI mouse model established using glycerol; assay: Serum analysis (BUN, creatinine) of AKI mice; type: in vivo, ICR mice; settings: 10 mg/kg intravenous, 24 hours, compared to AKI mice
# Procedure: (§1) All animal experiments were performed in accordance with the Gwangju Institute of Science and Technology Animal Care Committee guidelines (GIST-2021-095). Six-week-old ICR mice (30 g) were used, with free access to food and water. To establish an acute kidney injury (AKI) model, water was restricted for 18 hours. Next, 50% glycerol solution (8 mL/kg) was injected intramuscularly into both hind limbs of each mouse.
# (§2) After establishing the AKI model, 10 mg/kg of hemin and biopolymer-hemin complex was injected intravenously. Twenty-four hours later, blood was collected for serum urea nitrogen (BUN) and creatinine analysis. Kidneys and other major organs (heart, liver, spleen, and lungs) were also collected for further histological analysis. 1-10. Histological analysis
# [2] = system: AKI mouse model established using glycerol; assay: Histological analysis of kidneys of AKI mice (H&E, DHE, KIM-1, MAC387); type: in vivo, ICR mice
# Procedure: as §1, §2
# The kidneys of each group were fixed with 4% formaldehyde, embedded in paraffin, and cut into 5 μm thick sections. H&E staining and TUNEL analysis of kidney sections were performed according to the manufacturer's protocol. For immunostaining of kidney injury molecule-1 (KIM-1) and MAC387, sections were treated with 100-fold diluted KIM-1 and MAC primary antibodies, and 200-fold diluted anti-rabbit IgG (Alexa Fluor 594) and anti-mouse IgG (Alexa Fluor 488) were each used as a secondary antibody. […] Images were analyzed quantitatively using ImageJ software. […]
# HK-2 cells = assay: Cell viability against ROS (200 μM hydrogen peroxide), Alamar Blue; type: cell-based, human
# Procedure: HK-2 cells were treated with 200 μM hydrogen peroxide and various concentrations of the biopolymer-hemin complexes. After 24 hours of incubation, cell viability was evaluated using the Alamar Blue assay.
# It was confirmed that the biopolymer-hemin complex removes ROS such as hydrogen peroxide and protects cells from oxidative stress (FIG. 4D). The ROS protective effect of the biopolymer-hemin complex was assayed in HK-2 cells with hydrogen peroxide. Various concentrations of hemin and biopolymer-hemin complexes with the same amount of hemin were added to cells treated with hydrogen peroxide (200 μM). The survival rate of cells was improved by increasing the concentration of the biopolymer-hemin complex or hemin.
substance,measurement,setting,value
Hemin,serum BUN level,[1],did not induce significant changes
same,serum creatinine level,[1],did not induce significant changes
same,kidney ROS levels (DHE staining),"[2]; AKI mice (FIG. 6D, 6F)",not effective in reducing ROS levels
same,macrophage signal (MAC387 immunostaining),[2]; AKI mice kidney,strong macrophage signals
same,"cytoprotective effect against hydrogen peroxide, overall","HK-2 cells; HK-2, 200 μM hydrogen peroxide",no significant difference observed between CS-H and hemin
same,cell viability against hydrogen peroxide,"HK-2 cells; hemin concentration 1 μM, 200 μM hydrogen peroxide",no protective effect at all
same,protective effect against hydrogen peroxide,"HK-2 cells; hemin concentration 5 and 25 μM, 200 μM hydrogen peroxide",improved protective effects
